# Measurements published in patent US20250352555A1, “METHOD OF INCREASING IMMUNE CELL ACTIVATION AND/OR TREATING CANCER USING DIBENZOXAZEPINONES” (VASCULAR THERAPEUTICS PTY LTD, priority 2022, published 2025).
# Assays:
# p-ERK = test: Immunohistochemistry of MDA-MB-435 tumors, p-ERK; format: in vivo, mouse; settings: SCID mice, 20 mg/kg i.t.
# Excerpt: (§1) Immunohistochemical staining and analyses. Rabbit monoclonal anti-CD3 (cat. no. ab16669; mouse, rat and human reactive), rabbit monoclonal anti-PD-1 (cat. no. ab214421), rabbit monoclonal anti-CD68 (cat. no. ab125212) antibodies were obtained from Abcam, rabbit monoclonal anti-phospho-ERK (Thr^202/Tyr^204) (cat. no. CST4370), rabbit monoclonal total ERK (cat. no. CST4695), antibodies were obtained from Cell Signaling Technology. Rabbit polyclonal anti-PD-L1 (cat. no. PA5-20343) antibody was obtained from ThermoFisher.
# (§2) Formalin fixed, paraffin embedded sections were prepared from tumors. Heat-induced epitope retrieval was applied to all deparaffinized sections (4 μm sections on Superfrost slides) with citrate buffer, pH 6.0 for 5 min at 110° C. Sections were blocked with Dual Endogenous Enzyme Block (DAKO, S2003) for 10 min and then with 2% skim milk for 20 min. Slides were incubated with primary antibody for 60 min at room temperature or overnight at 4° C. and then for 10 min with probe of MACH3 Rabbit AP-Polymer Detection solution (Biocare Medical, M3R533 G, H, L). […] Integrated optical density (IOD) or area of positive staining (red chromagen) was assessed using Image-Pro Plus software (Cybernetics, Bethesda, MD, USA). Positive staining was the average of quantitation in 4-8 fields of view under 20× or 40× objectives.
# PD-1 = test: Immunohistochemistry of B16F10 tumors (Day 17), PD-1; format: in vivo, mouse; settings: B16F10 tumors Day 17, 200 mg/kg i.p., vs vehicle
# Excerpt: as §1
# as §2, with “objectives. […]” for “objectives.”
# JUN [1] = test: Western blotting time course for JUN, Jurkat T cells; format: cell-based, human; settings: Western blot time course
# Experimental: (§3) Western blotting. Cells were treated with compounds and times indicated and total cell lysates were prepared in RIPA buffer. Lysates (10 μg) were resolved by SDS-PAGE and transferred to Immobilon-P polyvinylidene difluoride (PVDF) membranes (Millipore, USA).
# (§4) Membranes were blocked with 5% skim milk and incubated with rabbit monoclonal anti-c-Jun (Abcam, cat. no. ab32137; mouse, rat and human reactive) antibody, rabbit monoclonal anti-PD-1 (Abcam, cat. no. ab214421) antibody, mouse monoclonal β-actin antibody (Sigma-Aldrich, cat. no. A5316), anti-phospho-SAPK/JNK (Thr^183/Tyr^185) (98F2) (CST, cat. no. 4671) antibody, anti-phospho-p44/42 MAPK (ERK1/2) (Thr^202/Tyr^204) (D13.14.4E) (CST, cat. no. 4370) antibody, anti-phospho-p38 MAPK (Thr^180/Tyr^182) (D3F9) (CST, cat. no. 4511) antibody, anti-SAPK/JNK antibody (CST, cat. no. 9252), anti-p44/42 MAPK (ERK1/2) (137F5) antibody (CST, cat. no. 4695), anti-p38 MAPK antibody (CST, cat. no. 9212), anti-DUSP8 antibody (Abcam, cat. no. ab198175) or anti-c-MAF (BLR045F) antibody (Abcam, cat. no. ab243901). […] Chemiluminescence was detected using the Western Lightning Chemiluminescence system (Thermo Scientific, USA) and ImageQuant™ LAS 4000 biomolecular imager (GE Healthcare Life Sciences, USA). Band intensity in images generated with the LAS 4000 was quantified using NIH Image J. […]
# p-JNK = test: Western blotting time course for p-JNK, Jurkat T cells; format: cell-based, human; settings: Western blot time course
# Experimental: as §3, §4
# JUN [2] = test: Western blotting for JUN, MeWo cells; format: cell-based, human; settings: MeWo cells (BRAF WT), 24 h, dose-dependent
# Experimental: as §3, §4
# endothelial cells = settings: shown previously, cited from earlier work
smiles,measurement,setting,value
"CCOC(=O)Nc1ccc2c(c1)C(=O)N(CC)c1ccccc1O2 [BT2, (10-ethyl-11-oxo-10,11-dihydro-dibenzo[b,f][1,4]oxazepin-2-yl)-carbamic acid ethyl ester]",ERK phosphorylation in the tumors (IHC),p-ERK,suppression of ERK phosphorylation
same,PD-1 levels in tumors (IHC),PD-1,reduced
same,time to induction of JUN at the protein level,JUN [1],2 to 4 h
same,time to stimulation of JNK phosphorylation,p-JNK,≤ 1 h
same,JUN expression (Western blot),JUN [2],increased
same,"ERK phosphorylation and expression of FosB/ΔFosB and VCAM-1, and VEGF",endothelial cells; endothelial cells,inhibit
same,"endothelial cell proliferation and migration, angiogenesis and wound repair",endothelial cells,inhibit
